From publication PMC5766233, “Ternary copper(II) complex: NCI60 screening, toxicity studies, and evaluation of efficacy in xenograft models of nasopharyngeal carcinoma” (PLoS ONE, 2018)

Key:
[1] = tested on: CYP1A; assay: Cytochrome P450 induction assay in rat primary hepatocytes, CYP1A; format: in vitro ADME; settings: for Fold induction CYP1A: 3 days; for % of positive control CYP1A: positive control 3-methyl cholanthrene 1.0 μM
Description: (§1) %Activity=(averagearearatiooftreated/averagearearatioofbasalcontrol)x100

[2] = Acute in vivo toxicity, single dose; parameters: species or system NOD scid gamma female mice
Description: Acute toxicity caused by the complex was tested on a method modified from the NCI single dose method. The experiment was performed to find the maximum tolerated dose (MTD) for the calculation of doses for repeat-dose animal testing; the experiment was designed to minimize both the use of compound tested and the number of animals to be sacrificed. […] Five doses, viz. 35.0, 17.5, 12.5, 7.5 and 5.5 mg/kg body weight of the Cu(II) complex, were injected intraperitoneally as single doses into each mouse respectively and the mice were observed daily for 14 days for drug-induced toxicity. The findings of the acute toxicity study are listed in S1 Table.
Determination of acute toxicity was carried out using a method adapted from the NCI [43]. Five mice were randomly separated into five cages. Five doses, i.e. 35.0, 17.5, 12.5, 7.5 and 5.5 mg/kg of body weight of Cu(II) complex were injected intraperitoneally as a single dose into each mouse respectively. After the drug administration, mice were observed hourly for any signs of toxicity, mortality, changes in general behavior and physical activities for the first 4 hours, then 4 hourly for 1 day followed by daily observation for 2 weeks. The signs which were monitored and recorded during this study included hypoactivity, lethargy, hypoapnoea, abnormal gait and posture, tremors, arching and rolling, convulsions, salivation and diarrhea. Mouse death during the period of observation was considered as death due to toxic effects of the test compound. The lethal dose and maximum tolerated dose (MTD) were determined during this study. At the end of the experiment, the survivors were sacrificed for necropsy. Gross and histopathological examinations were performed on the major internal organs including the heart, lung, liver, kidney and spleen.

[3] = tested on: CYP3A; assay: Cytochrome P450 induction assay in rat primary hepatocytes, CYP3A; settings: for Fold induction CYP3A: 3 days; for % of positive control CYP3A: positive control dexamethasone 30 μM
Description: Assessment for potential drug-drug interaction is an important component of drug discovery and development. […] Most drug-drug interaction and drug metabolism occur in the hepatic cytochrome P450 (CYP) system. CYP is a superfamily of metabolizing enzymes located primarily in hepatocytes. Inhibition or induction of CYP enzymes is a mechanism for drug-drug interaction. In the current work, the inhibition and induction of CYP enzymes were investigated. CYP induction assay was performed using rat primary hepatocytes for CYP […] isoforms with dexamethasone (30 μM) and 3-methyl cholanthrene (1.0 μM) as […], respectively. Cytochrome CYP 3A enzymes are considered to be the most important enzymes catalyzing drug metabolism with broad substrate specificity while CYP 1A enzymes play key roles in the metabolic activation of aromatic hydrocarbons to carcinogenic metabolites. In orally administered anticancer drug, gut wall CYP 3A enzyme is considered important for drug-drug interactions and xenobiotic interactions.
5.0 x 10^5 viable rat hepatocytes were seeded into collagen-coated 24 well plate in 500 μL William’s medium E (Sigma Aldrich) per well and they were incubated at 37°C in a 5% CO2 humidified incubator. After an overnight incubation, the medium in each designated well was replaced with 500 μL of fresh medium containing the specified concentration of Cu(II) complex (1.0, 0.3 and 0.1 μM), dexamethasone (30 μM), 3-methyl cholanthrene (1.0 μM) as reference standards (positive controls) or fresh medium alone (vehicle control). The cells were treated for 3 consecutive days with daily replacement of fresh medium containing compounds. After incubation, the cells were washed with 1X HBSS and the medium was replaced with 300 μL of probe substrates (Midazolam at 10 μM and Phenacetin at 100 μM; prepared in HBSS). The cells were then incubated for a further 20 min at 37°C with mild shaking. The reaction was terminated by adding 600 μL of cold acetonitrile followed by scraping of cells. The above mixture in each well was transferred to a tube, and these tubes were centrifuged at 10,000 rpm for 10 min. The concentration/level of metabolites in the supernatant was monitored by LC-MS/MS.
The extent of fold induction as well as percent of positive control was calculated relative to basal control (untreated) by using the following formula.
as §1
Foldinduction=%activity/100%ofpositivecontrol=foldinduction(Cu(II)treated)/foldinduction(referencestandardtreated)x100

[4] = Subacute toxicity, daily for 14 days; format: in vivo, NOD scid gamma female mice; settings: 4 and 6 mg/kg ip daily for 14 days
Description: For subacute toxicity study, three groups of three NSG female mice each were used. Using the formula from NCI, the low dose and high dose were calculated from the MTD value (17.5 mg/kg estimated above) and these were 4 and 6 mg/kg respectively. Mice in the first two groups were administered intraperitoneally with Cu(II) complex at doses of 4 and 6 mg/kg daily respectively for 14 days, while those in the control group received an equal volume of normal saline. […] No mortality was observed during the course of the study. All mice remained healthy with no obvious differences being noted in the general behavior, physical activities or clinical conditions with respect to the control group. The accumulative intraperitoneal doses administered in these groups were 56.0 and 84.0 mg/kg of the Cu(II) complex, respectively.
Mice were divided into three groups of 3 mice each. The Cu(II) complex was administered intraperitoneally at the doses of 4 and 6 mg/kg daily for 14 days, while the control group received an equal volume of normal saline. […] Signs of toxicity, mortality, body weight, food consumption and water intake were monitored and recorded daily. Adverse effects such as rapid or consistent body weight loss reaching 20%, blood stained discharges, labored breathing, paralysis, anemia, and other signs and symptoms mentioned in the acute toxicity study, was used as criteria for termination. At the end of the experiment, the mice were sacrificed and the major organs including the heart, lung, liver, kidney and spleen were examined for gross and histopathological changes.

SMILES: CC(C)(N)C(=O)[O-].O.O=[N+]([O-])[O-].[Cu+2].c1cnc2c(c1)ccc1cccnc12 [Cu(II) complex, [Cu(phen)(C-dmg)(H2O)]NO3]
- Fold induction CYP1A ([1]; 0.1 μM): 1.1
- % of positive control CYP1A ([1]; 0.1 μM): 10.1%
- Fold induction CYP1A ([1]; 0.3 μM): 1.4
- % of positive control CYP1A ([1]; 0.3 μM): 13.0%
- Fold induction CYP1A ([1]; 1.0 μM): 0.8
- % of positive control CYP1A ([1]; 1.0 μM): 7.4%
- induction, % of positive control, CYP1A ([1]; 0.1-1.0 μM): < 13%
- Mortality ([2]; 5.5 mg/kg single ip dose): No
- Observation of mice behavioral and physical changes (after injection) ([2]; 5.5 mg/kg single ip dose): No clinical signs occurred. It showed normal behavior patterns when provoked.
- Observation of mice behavioral and physical changes (later) ([2]; 5.5 mg/kg single ip dose): Normal behavior and activities.
- Mortality ([2]; 7.5 mg/kg single ip dose): No
- Observation of mice behavioral and physical changes (after injection) ([2]; 7.5 mg/kg single ip dose): No abnormal clinical signs occurred. It showed normal behavior patterns when provoked.
- Observation of mice behavioral and physical changes (later) ([2]; 7.5 mg/kg single ip dose): Normal behavior and activities.
- Mortality ([2]; 12.5 mg/kg single ip dose): No
- Observation of mice behavioral and physical changes (after injection) ([2]; 12.5 mg/kg single ip dose): After drug injection, mouse stayed at corner of its cage but resumed its normal behavior and physical activities after 45 min. Body movement happened. It showed normal behavior patterns when provoked.
- Observation of mice behavioral and physical changes (later) ([2]; 12.5 mg/kg single ip dose): Normal behavior and activities.
- Mortality ([2]; 17.5 mg/kg single ip dose): No
- Observation of mice behavioral and physical changes (after injection) ([2]; 17.5 mg/kg single ip dose): After drug injection, mouse stayed at corner of the cage but resumed its normal behavior and physical activities after 45 min. Body movement happened. It showed normal behavior patterns when provoked.
- Observation of mice behavioral and physical changes (later) ([2]; 17.5 mg/kg single ip dose): Normal behavior and activities.
- Histopathological examination, spleen ([2]; 35 mg/kg single ip dose): increased in multinucleated giant cells
- Mortality ([2]; 35.0 mg/kg single ip dose): Yes
- Observation of mice behavioral and physical changes (after injection) ([2]; 35.0 mg/kg single ip dose): Mouse was immobile and staying at one corner of the cage about 30 min after drug injection. After 0.5, 1, 2, 3 & 4 h, it was still immobile. Unresponsive to provocation.
- Observation of mice behavioral and physical changes (later) ([2]; 35.0 mg/kg single ip dose): It was found dead on Day 2; blood stained urine noted.
- MTD ([2]; single dose treatment, intraperitoneal, estimated): 17.5 mg/kg
- LD50 ([2]; single intraperitoneal dose, estimated): 26.25 mg/kg
- Histopathological examination, all organs examined ([2]; single ip doses other than 35 mg/kg): no significant morphological changes
- Fold induction CYP3A ([3]; 0.1 μM): 1.3
- % of positive control CYP3A ([3]; 0.1 μM): 4.7%
- Fold induction CYP3A ([3]; 0.3 μM): 1.2
- % of positive control CYP3A ([3]; 0.3 μM): 4.3%
- Fold induction CYP3A ([3]; 1.0 μM): 0.8
- Cell death observed ([3]; 1.0 μM, rat hepatocytes in the induction assay): ** Cell death observed (approximately 30%).
- % of positive control CYP3A ([3]; 1.0 μM): 3.0%
- induction, % of positive control, CYP3A ([3]; 0.1-1.0 μM): < 13%
- Histopathological examination, all organs [4]: no significant morphological changes
- body weight [4]: no significant reduction of body weight
- Mortality ([4]; 14 days further observation): No mortality
- weight of vital organs ([4]; day 28): not significantly affected
- site of injections ([4]; disappeared during the 14-day observation): some inflammation and induration
